Reference: patent US8598126B2, “Peptides for inhibiting the HPV-E6 oncoprotein” (priority 2008, dated 2013)

Key:
[1] = system: HPV16-positive CaSki cells; test: Clonogenic survival assay, CaSki; assay type: cell-based; details: stable expression
[2] = system: HPV16-positive SiHa cells; test: Clonogenic survival assay, SiHa; assay type: cell-based; details: stable expression
Source text: HPV16-positive cell lines SiHa and MRI-H-186, HPV18-positive HeLa cells and the HPV-negative osteosarcoma cell line U-2 OS were transfected with peptide expression vectors which allowed for hygromcyin B selection (pCEP4, Invitrogen). After 6-7 days of selection, cells were fixed and stained with formaldehyde-crystal violet solution.

HPV16 E6 = HPV16 E6 (Human papillomavirus type 16, UniProt P03126); details: FIG. 1, solubility-optimized versions and mutants
Chain of HPV16 E6 (P03126 whole entry): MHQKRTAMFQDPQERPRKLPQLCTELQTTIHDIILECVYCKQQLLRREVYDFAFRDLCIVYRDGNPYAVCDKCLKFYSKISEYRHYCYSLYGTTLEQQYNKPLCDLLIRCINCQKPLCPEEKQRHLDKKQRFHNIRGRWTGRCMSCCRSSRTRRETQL

| Substance | growth in clonogenic survival assay [1] | growth in clonogenic survival assay [2] | activity (binding to HPV16 E6) of pep 11 variants and mutants (HPV16 E6) |
| --- | --- | --- | --- |
| E6AP peptide: E6 binding consensus motif within E6AP (SEQ ID NO: 9) (KEKEEYNSNSSSIASIGLI; E6 pep11*) [reference compound] | showed no effect | showed no effect | – |
| pep11**m (EYNSNCSCIACIGLI; E6 pep11*) | showed no effect | showed no effect | inactive |
